Results on five compounds are retold here after patent US12391737B2, “Soluble NPY2 receptor agonists” (Boehringer Ingelheim International GmbH, priority 2020, dated 2025).

*1 amine or outer side, *2 acyl side, *3 side chain or, on linkers, in order; H or OH if unused. Where a SMILES comes first, the peptide text is derived from it. Side-chain parts run from the residue outwards. The star is where a group is joined. C18 diacid = O=C(O)CCCCCCCCCCCCCCCCC(=O)*; γGlu = O=C(O)[C@H](CCC(=O)[*:2])N[*:1]; Isovaleryl = CC(C)CC(=O)*; Ahx = NCCCCCC(=O)O Where only a bound is given, the exact number is not on record here.

One series is described as follows: Solubility determination. To be noted: for Sol6: pH 6; for Sol7: pH 7. The procedure, abridged: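 Solubility is derived from the ratio of reversed-phase peak areas, filtered sample over a control dissolved at 1 mg/ml in 50% acetonitrile. Peptides are agitated for 2 hours at room temperature in 0.1 M sodium diphosphate at pH 6.4 or 7.0, aiming at 10 mg/ml.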
For series [1], the target named is T1, Human Neuropeptide Y2 Receptor (Homo sapiens, UniProt P49146).
T1 construct: purchased CHEMICON HTS066M
T1 sequence (P49146 1-381): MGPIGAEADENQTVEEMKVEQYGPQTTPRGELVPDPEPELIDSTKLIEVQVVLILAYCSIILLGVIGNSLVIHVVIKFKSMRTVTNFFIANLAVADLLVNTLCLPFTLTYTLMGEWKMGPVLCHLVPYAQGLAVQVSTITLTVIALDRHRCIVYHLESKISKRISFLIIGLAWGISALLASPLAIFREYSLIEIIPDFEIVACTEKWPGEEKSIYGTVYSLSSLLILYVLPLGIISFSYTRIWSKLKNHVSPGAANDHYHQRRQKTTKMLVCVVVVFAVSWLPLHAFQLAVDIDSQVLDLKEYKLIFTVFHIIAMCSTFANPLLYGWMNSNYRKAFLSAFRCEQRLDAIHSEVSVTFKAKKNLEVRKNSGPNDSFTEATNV
In words: Radioligand binding competition assay (RLB). As to conditions: Table 3, 125I-PYY(1-36) competition; read-out: Ki. The procedure, abridged: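 Filtration competition binding on membranes from cells expressing the receptor, 0.5 μg protein/well, in 50 mM HEPES, 5 mM MgCl2, 1 mM CaCl2, pH 7.4, with 0.2% ovalbumin. Incubation ran 2 h at room temperature, followed by GF/C filtration and scintillation counting. IC50 came from nonlinear sigmoidal fits.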

With `CC(C)CC(=O)N[C@@H](C)C(=O)N1CCC[C@H]1C(=O)N[C@@H](CCC(=O)O)C(=O)N[C@@H](CCCCNC(=O)CCCCCNC(=O)CC[C@H](NC(=O)CCCCCCCCCCCCCCCCC(=O)O)C(=O)O)C(=O)N1CCC[C@H]1C(=O)N[C@@H](CCC(=O)O)C(=O)N[C@@H](CCC(=O)O)C(=O)N[C@@H](CC(=O)O)C(=O)N[C@@H](C)C(=O)N[C@@H](CCC(=O)O)C(=O)N1CCC[C@H]1C(=O)N[C@@H](CCC(=O)O)C(=O)N[C@@H](CCC(=O)O)C(=O)N[C@H](C(=O)N[C@@H](CCC(N)=O)C(=O)N[C@@H](CCCNC(=N)N)C(=O)N[C@@H](Cc1ccc(O)cc1)C(=O)N[C@@H](Cc1ccc(O)cc1)C(=O)N[C@H](C(=O)N[C@@H](CO)C(=O)N[C@@H](CC(C)C)C(=O)N[C@@H](CCCNC(=N)N)C(=O)N[C@@H](Cc1c[nH]cn1)C(=O)N[C@@H](Cc1ccc(O)cc1)C(=O)N[C@@H](Cc1ccc(O)cc1)C(=O)N[C@@H](CC(N)=O)C(=O)N[C@@H](Cc1c[nH]c2ccccc12)C(=O)N[C@@H](CC(C)C)C(=O)N[C@H](C(=O)N[C@@H](CCCNC(=N)N)C(=O)N[C@@H](CCC(N)=O)C(=O)N[C@@H](CCCNC(=N)N)C(=O)N[C@@H](Cc1ccc(O)cc1)C(N)=O)[C@@H](C)O)C(C)C)[C@@H](C)O` [Compound 107, N{alpha-4}-(3-methylbutanoyl)-N{epsilon-7}-(6-[(4S)-4-carboxy-4-(17-carboxyheptadecanamido)butanamido]hexanoyl)-[4A,7K,9E,13E,17T,18Q,22V,28Y,30W,31L]-hPYY(4-36)], in “Solubility determination”, the “Sol6” value is 11.0 mg/mL and the “Sol7” value turned out to be 11.0 mg/mL. Further, the Ki in series [1] was found to be 5.13 nM.

As for `CC(C)CC(=O)N[C@@H](C)C(=O)N1CCC[C@H]1C(=O)N[C@@H](CCC(=O)O)C(=O)N[C@@H](CCCCNC(=O)CCCCCNC(=O)CC[C@H](NC(=O)CCCCCCCCCCCCCCCCC(=O)O)C(=O)O)C(=O)N1CCC[C@H]1C(=O)N[C@@H](CCC(=O)O)C(=O)N[C@@H](CCC(=O)O)C(=O)N[C@@H](CC(=O)O)C(=O)N1CCC[C@H]1C(=O)N[C@H](C(=O)N1CCC[C@H]1C(=O)N[C@@H](CCC(=O)O)C(=O)N[C@@H](CCC(=O)O)C(=O)N[C@@H](CC(C)C)C(=O)N[C@@H](CCC(N)=O)C(=O)N[C@@H](CCCNC(=N)N)C(=O)N[C@@H](Cc1ccc(O)cc1)C(=O)N[C@@H](Cc1ccc(O)cc1)C(=O)N[C@H](C(=O)N[C@@H](CO)C(=O)N[C@@H](CC(C)C)C(=O)N[C@@H](CCCNC(=N)N)C(=O)N[C@@H](Cc1c[nH]cn1)C(=O)N[C@@H](Cc1ccc(O)cc1)C(=O)N[C@@H](Cc1ccc(O)cc1)C(=O)N[C@@H](CC(N)=O)C(=O)N[C@@H](Cc1c[nH]c2ccccc12)C(=O)N[C@@H](CC(C)C)C(=O)N[C@H](C(=O)N[C@@H](CCCNC(=N)N)C(=O)N[C@@H](CCC(N)=O)C(=O)N[C@@H](CCCNC(=N)N)C(=O)N[C@@H](Cc1ccc(O)cc1)C(N)=O)[C@@H](C)O)C(C)C)[C@@H](C)O` [Compound 22, N{alpha-4}-(3-methylbutanoyl)-N{epsilon-7}-(6-[(4S)-4-carboxy-4-(17-carboxyheptadecanamido)butanamido]hexanoyl)[4A,7K,9E,12P,13T,18Q,22V,28Y,30W,31L]-hPYY(4-36)], in the series “Solubility determination”, the “Sol6” value was determined as 9.7 mg/mL and the “Sol7” value was determined as 9.8 mg/mL. In addition, the inhibition constant (Ki) in series [1] came to 4.98 nM.

For `CC[C@H](C)[C@H](NC(=O)[C@H](Cc1ccc(O)cc1)NC(=O)[C@H](Cc1ccc(O)cc1)NC(=O)[C@H](CCCNC(=N)N)NC(=O)[C@H](CCC(N)=O)NC(=O)[C@H](CC(C)C)NC(=O)[C@H](CCC(=O)O)NC(=O)[C@H](CCC(=O)O)NC(=O)[C@@H]1CCCN1C(=O)[C@H](CCC(=O)O)NC(=O)[C@H](C)NC(=O)[C@H](CC(=O)O)NC(=O)[C@H](C)NC(=O)[C@H](CCC(=O)O)NC(=O)[C@@H]1CCCN1C(=O)[C@H](CCCCNC(=O)CCCCCNC(=O)CC[C@H](NC(=O)CCCCCCCCCCCCCCCCC(=O)O)C(=O)O)NC(=O)[C@H](CCC(=O)O)NC(=O)[C@@H]1CCCN1C(=O)[C@H](C)NC(=O)CC(C)C)C(=O)N[C@@H](CO)C(=O)N[C@@H](CC(C)C)C(=O)N[C@@H](CCCNC(=N)N)C(=O)N[C@@H](Cc1c[nH]cn1)C(=O)N[C@@H](Cc1ccc(O)cc1)C(=O)N[C@@H](Cc1ccc(O)cc1)C(=O)N[C@@H](CC(N)=O)C(=O)N[C@@H](Cc1c[nH]c2ccccc12)C(=O)N[C@@H](CC(C)C)C(=O)N[C@H](C(=O)N[C@@H](CCCNC(=N)N)C(=O)N[C@@H](CCC(N)=O)C(=O)N[C@@H](CCCNC(=N)N)C(=O)N[C@@H](Cc1ccc(O)cc1)C(N)=O)[C@@H](C)O` [Compound 159, N{alpha-4}-(3-methylbutanoyl)-N{epsilon-7}-(6-[(4S)-4-carboxy-4-(17-carboxyheptadecanamido)butanamido]hexanoyl)-[4A,7K,9E,10A,13E,18Q,22I,28Y,30W,31L]-hPYY(4-36)] (Isovaleryl-APEK([Ahx-γGlu-C18 diacid])PEADAEPEELQRYYISLRHYYNWLTRQRY-NH2), in the series “Solubility determination”, the “Sol6” value is over 10.0 mg/mL and the “Sol7” value was found to be 10.0 mg/mL. In series [1], the Ki was 2.75 nM.

Take `CC(C)CC(=O)N[C@@H](C)C(=O)N1CCC[C@H]1C(=O)N[C@@H](CCC(=O)O)C(=O)N[C@@H](CCCCNC(=O)CCCCCNC(=O)CC[C@H](NC(=O)CCCCCCCCCCCCCCCCC(=O)O)C(=O)O)C(=O)N1CCC[C@H]1C(=O)N[C@@H](CCC(=O)O)C(=O)N[C@@H](C)C(=O)N[C@@H](CC(=O)O)C(=O)N[C@@H](CO)C(=O)N[C@@H](CO)C(=O)N1CCC[C@H]1C(=O)N[C@@H](CCC(=O)O)C(=O)N[C@@H](CCC(=O)O)C(=O)N[C@@H](CC(C)C)C(=O)N[C@@H](CCC(N)=O)C(=O)N[C@@H](CCCNC(=N)N)C(=O)N[C@@H](Cc1ccc(O)cc1)C(=O)N[C@@H](Cc1ccc(O)cc1)C(=O)N[C@H](C(=O)N[C@@H](CO)C(=O)N[C@@H](CC(C)C)C(=O)N[C@@H](CCCNC(=N)N)C(=O)N[C@@H](Cc1c[nH]cn1)C(=O)N[C@@H](Cc1ccc(O)cc1)C(=O)N[C@@H](Cc1ccc(O)cc1)C(=O)N[C@@H](CC(N)=O)C(=O)N[C@@H](Cc1c[nH]c2ccccc12)C(=O)N[C@@H](CC(C)C)C(=O)N[C@H](C(=O)N[C@@H](CCCNC(=N)N)C(=O)N[C@@H](CCC(N)=O)C(=O)N[C@@H](CCCNC(=N)N)C(=O)N[C@@H](Cc1ccc(O)cc1)C(N)=O)[C@@H](C)O)C(C)C` [Compound 29, N{alpha-4}-(3-methylbutanoyl)-N{epsilon-7}-(6-[(4S)-4-carboxy-4-(17-carboxyheptadecanamido)butanamido]hexanoyl)[4A,7K,9E,10A,12S,18Q,22V,28Y,30W,31L]-hPYY(4-36)] (Isovaleryl-APEK([Ahx-γGlu-C18 diacid])PEADSSPEELQRYYVSLRHYYNWLTRQRY-NH2): in “Solubility determination”, the “Sol6” value was 9.9 mg/mL and the “Sol7” value came to 10.0 mg/mL. Moreover, the Ki in series [1] turned out to be 1.36 nM.

For the compound `CC[C@H](C)[C@H](NC(=O)[C@H](CCC(=O)O)NC(=O)[C@H](CCC(=O)O)NC(=O)[C@@H]1CCCN1C(=O)[C@@H](NC(=O)[C@H](C)NC(=O)[C@H](C)NC(=O)[C@H](CCC(=O)O)NC(=O)[C@H](CCC(=O)O)NC(=O)[C@@H]1CCCN1C(=O)[C@H](CCCCNC(=O)CCCCCNC(=O)CC[C@H](NC(=O)CCCCCCCCCCCCCCCCC(=O)O)C(=O)O)NC(=O)[C@H](C)NC(=O)[C@@H]1CCCN1C(=O)[C@H](C)NC(=O)CC(C)C)[C@@H](C)O)C(=O)N[C@@H](CCC(N)=O)C(=O)N[C@@H](CCCNC(=N)N)C(=O)N[C@@H](Cc1ccc(O)cc1)C(=O)N[C@@H](Cc1ccc(O)cc1)C(=O)N[C@H](C(=O)N[C@@H](CO)C(=O)N[C@@H](CC(C)C)C(=O)N[C@@H](CCCNC(=N)N)C(=O)N[C@@H](Cc1c[nH]cn1)C(=O)N[C@@H](Cc1ccc(O)cc1)C(=O)N[C@@H](Cc1ccc(O)cc1)C(=O)N[C@@H](CC(N)=O)C(=O)N[C@@H](Cc1c[nH]c2ccccc12)C(=O)N[C@@H](CC(C)C)C(=O)N[C@H](C(=O)N[C@@H](CCCNC(=N)N)C(=O)N[C@@H](CCC(N)=O)C(=O)N[C@@H](CCCNC(=N)N)C(=O)N[C@@H](Cc1ccc(O)cc1)C(N)=O)[C@@H](C)O)C(C)C` [Compound 36, N{alpha-4}-(3-methylbutanoyl)-N{epsilon-7}-(6-[(4S)-4-carboxy-4-(17-carboxyheptadecanamido)butanamido]hexanoyl)[4A,6A,7K,9E,11A,13T,17I,18Q,22V,28Y,30W,31L]-hPYY(4-36)], in the series “Solubility determination”, the “Sol6” value is 0.0 mg/mL and the “Sol7” value was 0.4 mg/mL. For the same compound, in series [1], the Ki came to 1.25 nM.
